For the experiment, the target named is T1, MAT2A (Homo sapiens, UniProt P31153).
T1 construct: His6; made in house; host or cells: SF9 insect cells
The experiment can be described thus: MAT2A biochemical assay (colorimetric inorganic phosphate detection, PiColorLock). Particulars: recombinant His6-tagged MAT2A 1 μg/ml; 60 minutes preincubation at 25° C.; L-Met 80 μM, ATP 100 μM; 60 minutes reaction; read at 623 nm; read-out: MAT2A Inhibition Score. The gist of the method: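 His6-tagged human MAT2A (SF9-expressed, 1 μg/ml) converting L-Met and ATP to SAM in Tris pH 8.0, 50 mM KCl, 15 mM MgCl2, 300 uM EDTA, 0.005% BSA; 60 min at room temperature. Released phosphate detected colorimetrically with malachite green phosphomolybdate. Ten-point, three-fold compound dilution series.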

Results on 33 molecules are retold here after patent US10800782B2, “Inhibitors of cellular metabolic processes” (Agios Pharmaceuticals, Inc., priority 2016, dated 2020).

SMILES strings stand for the structures.

T1 sequence (P31153 whole entry): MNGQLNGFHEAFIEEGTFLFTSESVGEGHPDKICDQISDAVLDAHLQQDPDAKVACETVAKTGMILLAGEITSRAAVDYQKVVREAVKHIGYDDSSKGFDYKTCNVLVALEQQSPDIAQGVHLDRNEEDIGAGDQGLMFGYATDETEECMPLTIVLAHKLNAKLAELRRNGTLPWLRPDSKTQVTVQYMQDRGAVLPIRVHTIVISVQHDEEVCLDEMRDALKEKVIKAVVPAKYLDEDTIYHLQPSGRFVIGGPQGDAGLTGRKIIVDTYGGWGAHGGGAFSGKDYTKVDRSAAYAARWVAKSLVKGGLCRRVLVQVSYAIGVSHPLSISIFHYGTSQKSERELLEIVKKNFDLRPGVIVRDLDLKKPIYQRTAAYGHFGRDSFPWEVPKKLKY

As to `O=c1c(-c2ccc3c(c2)OCCO3)c(CO)[nH]c2c(C3=CCCCC3)c(-c3ccccc3)nn12` [Compound 225, 3-(cyclohex-1-en-1-yl)-6-(2,3-dihydrobenzo[b][1,4]dioxin-6-yl)-5-(hydroxymethyl)-2-phenylpyrazolo[1,5-a]pyrimidin-7(4H)-one], the IC50 was < 100 nM. Take `NCc1[nH]c2c(C3=CCCCC3)c(-c3ccccc3)nn2c(=O)c1-c1ccc2c(c1)OCCO2` [Compound 226, 5-(aminomethyl)-3-(cyclohex-1-en-1-yl)-6-(2,3-dihydrobenzo[b][1,4]dioxin-6-yl)-2-phenylpyrazolo[1,5-a]pyrimidin-7(4H)-one]: the IC50 is < 100 nM. `O=C(CO)NCc1[nH]c2c(-c3ccccc3)c(-c3ccccc3)nn2c(=O)c1-c1ccc2ncccc2c1` [Compound 227, 2-hydroxy-N-((7-oxo-2,3-diphenyl-6-(quinolin-6-yl)-4,7-dihydropyrazolo[1,5-a]pyrimidin-5-yl)methyl)acetamide]: the IC50 is < 100 nM. In the case of `CC(=O)NCc1[nH]c2c(-c3ccccc3)c(-c3ccccc3)nn2c(=O)c1-c1ccc2ncccc2c1` [Compound 228, N-((7-oxo-2,3-diphenyl-6-(quinolin-6-yl)-4,7-dihydropyrazolo[1,5-a]pyrimidin-5-yl)methyl)acetamide], the IC50 was < 100 nM.

Regarding `COc1ccc(-c2c(CO)[nH]c3c(C4=CCCCC4)c(-c4ccccc4)nn3c2=O)cc1` [Compound 229, 3-(cyclohex-1-en-1-yl)-5-(hydroxymethyl)-6-(4-methoxyphenyl)-2-phenylpyrazolo[1,5-a]pyrimidin-7(4H)-one], the IC50 is < 100 nM.

On to `O=c1c(-c2ccc3ncccc3c2)c(CO)[nH]c2c(C3=CCCCC3)c(-c3ccccc3)nn12` [Compound 230, 3-(cyclohex-1-en-1-yl)-5-(hydroxymethyl)-2-phenyl-6-(quinolin-6-yl)pyrazolo[1,5-a]pyrimidin-7(4H)-one], for which the IC50 is < 100 nM. For `O=c1c(-c2ccc3nccnc3c2)c(CO)[nH]c2c(C3=CCCCC3)c(-c3ccccc3)nn12` [Compound 231, 3-(cyclohex-1-en-1-yl)-5-(hydroxymethyl)-2-phenyl-6-(quinoxalin-6-yl)pyrazolo[1,5-a]pyrimidin-7(4H)-one], the IC50 was < 100 nM. Take `COc1ccc(-c2c(CN)[nH]c3c(C4=CCCCC4)c(-c4ccccc4)nn3c2=O)cc1` [Compound 232, 5-(aminomethyl)-3-(cyclohex-1-en-1-yl)-6-(4-methoxyphenyl)-2-phenylpyrazolo[1,5-a]pyrimidin-7(4H)-one]: the IC50 is < 100 nM.

As to `NCc1[nH]c2c(C3=CCCCC3)c(-c3ccccc3)nn2c(=O)c1-c1ccc2ncccc2c1` [Compound 233, 5-(aminomethyl)-3-(cyclohex-1-en-1-yl)-2-phenyl-6-(quinolin-6-yl)pyrazolo[1,5-a]pyrimidin-7(4H)-one], the IC50 is < 100 nM.

On to `NCc1[nH]c2c(C3=CCCCC3)c(-c3ccccc3)nn2c(=O)c1-c1ccc2nccnc2c1` [Compound 234, 5-(aminomethyl)-3-(cyclohex-1-en-1-yl)-2-phenyl-6-(quinoxalin-6-yl)pyrazolo[1,5-a]pyrimidin-7(4H)-one], for which the IC50 is < 100 nM. Take `NC(=O)NCc1[nH]c2c(-c3ccccc3)c(-c3ccccc3)nn2c(=O)c1-c1ccc2ncccc2c1` [Compound 235, 1-((7-oxo-2,3-diphenyl-6-(quinolin-6-yl)-4,7-dihydropyrazolo[1,5-a]pyrimidin-5-yl)methyl)urea]: the IC50 was < 100 nM. The same measure for `NCc1[nH]c2c(-c3ccccc3)c(-c3ccccc3)nn2c(=O)c1-c1ccc(O)cc1` [Compound 236, 5-(aminomethyl)-6-(4-hydroxyphenyl)-2,3-diphenylpyrazolo[1,5-a]pyrimidin-7(4H)-one]: < 100 nM; for `Cc1[nH]c2c(-c3ccccc3)c(-c3ccccc3)nn2c(=O)c1-c1ccc(O)cc1` [Compound 237, 6-(4-hydroxyphenyl)-5-methyl-2,3-diphenylpyrazolo[1,5-a]pyrimidin-7(4H)-one]: < 100 nM. Regarding `Cc1[nH]c2c(-c3ccccc3)c(-c3ccccc3)nn2c(=O)c1-c1ccc(O)c(F)c1` [Compound 238, 6-(3-fluoro-4-hydroxyphenyl)-5-methyl-2,3-diphenylpyrazolo[1,5-a]pyrimidin-7(4H)-one], the IC50 is < 100 nM. Turning to `Cc1[nH]c2c(-c3ccccc3)c(-c3ccccc3)nn2c(=O)c1-c1ccc(O)c(Cl)c1` [Compound 239, 6-(3-chloro-4-hydroxyphenyl)-5-methyl-2,3-diphenylpyrazolo[1,5-a]pyrimidin-7(4H)-one], the IC50 is < 100 nM. For the molecule `Cc1[nH]c2c(C3=CCCCC3)c(-c3ccccc3)nn2c(=O)c1-c1ccc(O)cc1` [Compound 240, 3-(cyclohex-1-en-1-yl)-6-(4-hydroxyphenyl)-5-methyl-2-phenylpyrazolo[1,5-a]pyrimidin-7(4H)-one], the IC50 is < 100 nM. The same measure for `NCc1[nH]c2c(C3=CCCCC3)c(-c3ccccc3)nn2c(=O)c1-c1ccc(O)cc1` [Compound 241, 5-(aminomethyl)-3-(cyclohex-1-en-1-yl)-6-(4-hydroxyphenyl)-2-phenylpyrazolo[1,5-a]pyrimidin-7(4H)-one]: < 100 nM; for `Cc1[nH]c2c(-c3ccccc3)c(-c3ccc(O)cc3)nn2c(=O)c1-c1ccc2ncccc2c1` [Compound 242, 2-(4-hydroxyphenyl)-5-methyl-3-phenyl-6-(quinolin-6-yl)pyrazolo[1,5-a]pyrimidin-7(4H)-one]: < 100 nM.

For `COc1ccc(-c2nn3c(=O)c(-c4ccc5ncccc5c4)c(C)[nH]c3c2-c2ccccc2)cc1` [Compound 243, 2-(4-methoxyphenyl)-5-methyl-3-phenyl-6-(quinolin-6-yl)pyrazolo[1,5-a]pyrimidin-7(4H)-one], the IC50 lay in the range of 1000 to 10000 nM.

Turning to `O=c1c(-c2ccc3ncccc3c2)c[nH]c2c(-c3ccccc3)c(-c3ccccc3)nn12` [Compound 244, 2,3-diphenyl-6-(quinolin-6-yl)pyrazolo[1,5-a]pyrimidin-7(4H)-one], the IC50 was < 100 nM. `Cc1[nH]c2c(-c3ccccc3)c(-c3ccccc3)nn2c(=O)c1-c1ccc2ncncc2c1` [Compound 245, 5-methyl-2,3-diphenyl-6-(quinazolin-6-yl)pyrazolo[1,5-a]pyrimidin-7(4H)-one]: the IC50 is < 100 nM. Consider `Cc1[nH]c2c(-c3ccccc3)c(-c3ccccc3)nn2c(=O)c1-c1ccc2nc(C(=O)O)ccc2c1` [Compound 246, 6-(5-methyl-7-oxo-2,3-diphenyl-4,7-dihydropyrazolo[1,5-a]pyrimidin-6-yl) quinoline-2-carboxylic Acid], for which the IC50 is < 100 nM. For `Cc1nc2ccc(-c3c(C)[nH]c4c(-c5ccccc5)c(-c5ccccc5)nn4c3=O)cc2cc1O` [Compound 247, 6-(3-hydroxy-2-methylquinolin-6-yl)-5-methyl-2,3-diphenylpyrazolo[1,5-a]pyrimidin-7(4H)-one], the IC50 is < 100 nM. `COc1ccc(-c2c(CO)n(C)c3c(-c4ccccc4)c(-c4ccccc4)nn3c2=O)cc1` [Compound 249, 5-(hydroxymethyl)-6-(4-methoxyphenyl)-4-methyl-2,3-diphenylpyrazolo[1,5-a]pyrimidin-7(4H)-one]: the IC50 is < 100 nM. As to `Cc1[nH]c2c(-c3ccccc3)c(-c3ccc(N)cc3)nn2c(=O)c1-c1ccc2ncccc2c1` [Compound 250, 2-(4-aminophenyl)-5-methyl-3-phenyl-6-(quinolin-6-yl)pyrazolo[1,5-a]pyrimidin-7(4H)-one], the IC50 is < 100 nM. The same measure for `Cc1[nH]c2c(-c3ccccc3)c(-c3ccc([N+](=O)[O-])cc3)nn2c(=O)c1-c1ccc2ncccc2c1` [Compound 251, 5-methyl-2-(4-nitrophenyl)-3-phenyl-6-(quinolin-6-yl)pyrazolo[1,5-a]pyrimidin-7(4H)-one]: 1000 to 10000 nM. With `Cc1[nH]c2c(-c3ccccc3)c(-c3cc[nH]c3)nn2c(=O)c1-c1ccc2ncccc2c1` [Compound 252, 5-methyl-3-phenyl-2-(1H-pyrrol-3-yl)-6-(quinolin-6-yl)pyrazolo[1,5-a]pyrimidin-7(4H)-one], the IC50 is < 100 nM. The same measure for `Cc1[nH]c2c(-c3ccccc3)c(-c3ccccc3)nn2c(=O)c1-c1ccc2nc(CN)sc2c1` [Compound 253, 6-(2-(aminomethyl)benzo[d]thiazol-6-yl)-5-methyl-2,3-diphenylpyrazolo[1,5-a]pyrimidin-7(4H)-one]: < 100 nM. For the molecule `COc1cnc2ccc(-c3c(C)[nH]c4c(-c5ccccc5)c(-c5ccccc5)nn4c3=O)cc2n1` [Compound 254, 6-(3-methoxy-quinoxalin-6-yl)-5-methyl-2,3-diphenylpyrazolo[1,5-a]-pyrimidin-7(4H)-one], the IC50 is < 100 nM.

Take `Cc1[nH]c2c(N3CCCCC3)c(-c3ccccc3)nn2c(=O)c1-c1ccc2nccnc2c1` [Compound 255, 5-methyl-2-phenyl-3-(piperidin-1-yl)-6-(quinoxalin-6-yl)pyrazolo[1,5-a]pyrimidin-7(4H)-one]: the IC50 was < 100 nM. Take `Cc1[nH]c2c(-c3ccccc3)c(-c3ccccc3)nn2c(=O)c1-c1ccc2ncn(C)c2c1` [Compound 256, 5-methyl-6-(1-methyl-1H-benzo[d]imidazol-6-yl)-2,3-diphenylpyrazolo[1,5-a]pyrimidin-7(4H)-one]: the IC50 is < 100 nM.

Take `Cc1[nH]c2c(-c3ccccc3)c(-c3ccccc3)nn2c(=O)c1-c1ccc2c(c1)NC(=O)CO2` [Compound 257, 6-(5-methyl-7-oxo-2,3-diphenyl-4,7-dihydropyrazolo[1,5-a]pyrimidin-6-yl)-2H-benzo[b][1,4]oxazin-3 (4H)-one]: the IC50 is < 100 nM. For `Cc1[nH]c2c(-c3ccccc3)c(-c3ccccc3)nn2c(=O)c1-c1ccc2c(c1)NCCO2` [Compound 258, 6-(3,4-dihydro-2H-benzo[b][1,4]oxazin-6-yl)-5-methyl-2,3-diphenylpyrazolo[1,5-a]pyrimidin-7(4H)-one], the IC50 was < 100 nM.
